In the supplement of paper PMC11208160:

Assay: recombinant barcode read abundance after kanamycin selection (control-corrected) (log10(CPM+1)); higher = more efficient recombination; sequences stand for … in AGTGCAGAGAAAATCGGCCAGTTTTCTCTGCCTGCAGTCCGCATGCCGT…AGATTTATGCAGCGGACTGCCTTTCTCCCAAAGTGATAAACCGGACAGTATCATGGACCGGTTTTCCCGGTAATCCGTATTTGCAAGGTTGGTTTCACT; site = the 11-nt target
Procedure, shortened: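 IS621 bridge RNA target-binding loops were paired with targets in a pooled library tested in E. coli. After co-electroporation with a donor plasmid, cells were plated in two replicates on chloramphenicol/ampicillin LB agar (control) and on chloramphenicol/ampicillin/kanamycin carrying 0.1 mM IPTG. Barcodes at recombinant junctions were counted as counts per million, averaged and control-corrected to give recombination efficiency. Values are log10(CPM+1).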
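Also: IS621 recombinase and bridge RNA in Escherichia coli cells.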

Compared with “TCCGTGACTTGGGTTCTAACCTGTTGCCT (site TCCGTGACTAG)”, “TCCGTGACTTGGGTTCTAACCTGTTGCCT (site TCCGTGCCTAG)” is lower in “recombinant barcode read abundance (log10)” value: 2.07 for the first, 0 for the second.

“TCCGTGACTTGGGTTCTAACCTGTTGCCT (site TCCGTGGCTAG)” and “TCCGTGACTTGGGTTCTAACCTGTTGCCT (site TCCGTGTCTAG)” are within 0.2 log units of each other in “recombinant barcode read abundance (log10)” value: 0.436 for the first, 0.352 for the second.

Going from “TCCTAACCTTGGGTTCTAACCTGTTGCTG (site ACCTAACCTCT)” to “TCCTAACCTTGGGTTCTAACCTGTTGCTG (site TCCTAACCTCA)”, the “recombinant barcode read abundance (log10)” value rises from 0.0586 to 1.37.

Compared with “TCCTAATCTTGGGTTCTAACCTGTTGCAT (site TCCTAACCTAG)”, “TCCTAATCTTGGGTTCTAACCTGTTGCAT (site TCCTAATCTAT)” is higher in “recombinant barcode read abundance (log10)” value: 0.0364 for the first, 0.607 for the second.

First: TCCTACCCTTGGGTTCTAACCTGTTGCCT (site TACTACCCTAG)
Second: TCCTACCCTTGGGTTCTAACCTGTTGCCT (site TCCTACCCTAG)
The “recombinant barcode read abundance (log10)” value of the first is lower: 0.0977 for the first, 1.36 for the second.

First: TCCTACCCTTGGGTTCTAACCTGTTGCCT (site TGCTACCCTAG)
Second: TCCTACCCTTGGGTTCTAACCTGTTGCCT (site TTCTACCCTAG)
The “recombinant barcode read abundance (log10)” value of the first is lower: 0.052 for the first, 0.271 for the second.

First: TCCTACTCTTGGGTTCTAACCTGTTGCCG (site TCCGACTCTCG)
Second: TCCTACTCTTGGGTTCTAACCTGTTGCCG (site TCCTACTCTCG)
The “recombinant barcode read abundance (log10)” value of the first is lower: 0.0792 for the first, 0.688 for the second.

Going from “TCCTAGACTTGGGTTCTAACCTGTTGCGG (site TCCTAGACTCC)” to “TCCTAGACTTGGGTTCTAACCTGTTGCGG (site TTCTAGACTCC)”, the “recombinant barcode read abundance (log10)” value falls from 1.53 to 0.117.

Compared with “TCCTAGGCTTGGGTTCTAACCTGTTGCGC (site TCCTAGGCTGC)”, “TCCTAGGCTTGGGTTCTAACCTGTTGCGC (site TCTTAGGCTAC)” is lower in “recombinant barcode read abundance (log10)” value: 1.72 for the first, 0.161 for the second.

“TCCTATGCTTGGGTTCTAACCTGTTGCTA (site CAAGTGACTAG)” and “TCCTATGCTTGGGTTCTAACCTGTTGCTA (site TCCTATGCTTA)” are within 0.2 log units of each other in “recombinant barcode read abundance (log10)” value: 0.0648 for the first, 0.0755 for the second.

Compared with “TCCTATTCTTGGGTTCTAACCTGTTGCGA (site TACTATGCTTC)”, “TCCTATTCTTGGGTTCTAACCTGTTGCGA (site TCCTATTCTTC)” is higher in “recombinant barcode read abundance (log10)” value: 0.141 for the first, 0.544 for the second.

“TCCTGGGCTTGGGTTCTAACCTGTTGCCG (site TCCTGGGCTCG)” and “TCCTGGGCTTGGGTTCTAACCTGTTGCCG (site TTATGGGCTCG)” are within 0.2 log units of each other in “recombinant barcode read abundance (log10)” value: 0.0509 for the first, 0.0305 for the second.

Compared with “TCCTGTACTTGGGTTCTAACCTGTTGCAT (site TCCAGTACTAT)”, “TCCTGTACTTGGGTTCTAACCTGTTGCAT (site TCCCGTACTAT)” is higher in “recombinant barcode read abundance (log10)” value: 0.272 for the first, 0.705 for the second.

Going from “TCCTGTACTTGGGTTCTAACCTGTTGCAT (site TCCGGTACTAT)” to “TCCTGTACTTGGGTTCTAACCTGTTGCAT (site TCCTGTACTAT)”, the “recombinant barcode read abundance (log10)” value rises from 0.00868 to 1.01.

First: TCGAACCCTTGGGTTCTAACCTGTTGCGA (site TCGAACCCTTC)
Second: TCGAACCCTTGGGTTCTAACCTGTTGCGA (site TCGCACCCTTC)
The “recombinant barcode read abundance (log10)” value of the first is higher: 0.927 for the first, 0.0454 for the second.

“TCGAACCCTTGGGTTCTAACCTGTTGCGA (site TCGGACCCTTC)” and “TCGAACCCTTGGGTTCTAACCTGTTGCGA (site TCGTACCCTTC)” are within 0.2 log units of each other in “recombinant barcode read abundance (log10)” value: 0.114 for the first, 0.0144 for the second.

Going from “TCGAACCCTTGGGTTCTAACCTGTTGCTT (site GCGAACCCTAA)” to “TCGAACCCTTGGGTTCTAACCTGTTGCTT (site TCGAACCCTAA)”, the “recombinant barcode read abundance (log10)” value rises from 0.0343 to 0.258.

Compared with “TCGAAGGCTTGGGTTCTAACCTGTTGCCT (site TCAAAGGCTAG)”, “TCGAAGGCTTGGGTTCTAACCTGTTGCCT (site TCCAAGGCTAG)” is lower in “recombinant barcode read abundance (log10)” value: 0.411 for the first, 0.0717 for the second.

Compared with “TCGAAGGCTTGGGTTCTAACCTGTTGCCT (site TCGAAGGCTAG)”, “TCGAAGGCTTGGGTTCTAACCTGTTGCCT (site TCTAAGGCTAG)” is lower in “recombinant barcode read abundance (log10)” value: 0.382 for the first, 0.0236 for the second.

“TCGAATCCTTGGGTTCTAACCTGTTGCCT (site TCGAAACCTAG)” and “TCGAATCCTTGGGTTCTAACCTGTTGCCT (site TCGAACCCTAG)” are within 0.2 log units of each other in “recombinant barcode read abundance (log10)” value: 0.0251 for the first, 0.0582 for the second.

“TCGAATCCTTGGGTTCTAACCTGTTGCCT (site TCGAAGCCTAG)” and “TCGAATCCTTGGGTTCTAACCTGTTGCCT (site TCGAATCCTAG)” are within 0.2 log units of each other in “recombinant barcode read abundance (log10)” value: 0.0385 for the first, 0.173 for the second.

“TCGAATGCTTGGGTTCTAACCTGTTGCCT (site TCGAATGCTAG)” and “TCGAATGCTTGGGTTCTAACCTGTTGCCT (site TCGGATGCTAA)” are within 0.2 log units of each other in “recombinant barcode read abundance (log10)” value: 0.0629 for the first, 0.0663 for the second.

“TCGACGCCTTGGGTTCTAACCTGTTGCTT (site ACGACGTCTAA)” and “TCGACGCCTTGGGTTCTAACCTGTTGCTT (site TCGACGCCTAA)” are within 0.2 log units of each other in “recombinant barcode read abundance (log10)” value: 0.0317 for the first, 0.145 for the second.

Compared with “TCGAGAGCTTGGGTTCTAACCTGTTGCTA (site TCGAGAGCTCG)”, “TCGAGAGCTTGGGTTCTAACCTGTTGCTA (site TCGAGAGCTTA)” is higher in “recombinant barcode read abundance (log10)” value: 0.183 for the first, 0.446 for the second.

“TCGAGTGCTTGGGTTCTAACCTGTTGCCT (site TCGAGTACTAG)” and “TCGAGTGCTTGGGTTCTAACCTGTTGCCT (site TCGAGTCCTAG)” are within 0.2 log units of each other in “recombinant barcode read abundance (log10)” value: 0.187 for the first, 0.19 for the second.

“TCGAGTGCTTGGGTTCTAACCTGTTGCCT (site TCGAGTGCTAG)” and “TCGAGTGCTTGGGTTCTAACCTGTTGCCT (site TCGAGTTCTAG)” are within 0.2 log units of each other in “recombinant barcode read abundance (log10)” value: 0.0982 for the first, 0 for the second.

Compared with “TCGCAGACTTGGGTTCTAACCTGTTGCCT (site CCGCAGACTTG)”, “TCGCAGACTTGGGTTCTAACCTGTTGCCT (site TCGCAGACTAG)” is lower in “recombinant barcode read abundance (log10)” value: 0.54 for the first, 0.286 for the second.

“TCGCATTCTTGGGTTCTAACCTGTTGCAT (site TCGCATTCTAT)” and “TCGCATTCTTGGGTTCTAACCTGTTGCAT (site TCGCGTTCTAA)” are within 0.2 log units of each other in “recombinant barcode read abundance (log10)” value: 0.159 for the first, 0.198 for the second.

First: TCGCGAACTTGGGTTCTAACCTGTTGCCT (site TCGCGAACTAG)
Second: TCGCGAACTTGGGTTCTAACCTGTTGCCT (site TCGGGAACTAG)
The “recombinant barcode read abundance (log10)” value of the first is higher: 0.252 for the first, 0 for the second.

“TCGCGTACTTGGGTTCTAACCTGTTGCAT (site GCTCGTACTAT)” and “TCGCGTACTTGGGTTCTAACCTGTTGCAT (site TCGCGTACTAT)” are within 0.2 log units of each other in “recombinant barcode read abundance (log10)” value: 0.0605 for the first, 0.189 for the second.

First: TCGCGTCCTTGGGTTCTAACCTGTTGCAA (site TAGCGTCCTGT)
Second: TCGCGTCCTTGGGTTCTAACCTGTTGCAA (site TCGCGTCCTTT)
The “recombinant barcode read abundance (log10)” value of the first is lower: 0.119 for the first, 0.402 for the second.

“TCGCGTCCTTGGGTTCTAACCTGTTGCAG (site TCACGTCCTCT)” and “TCGCGTCCTTGGGTTCTAACCTGTTGCAG (site TCGCGTCCTCT)” are within 0.2 log units of each other in “recombinant barcode read abundance (log10)” value: 0.231 for the first, 0.379 for the second.

Going from “TCGCGTGCTTGGGTTCTAACCTGTTGCGG (site CATTCCACTAG)” to “TCGCGTGCTTGGGTTCTAACCTGTTGCGG (site TCGCGTGCTCC)”, the “recombinant barcode read abundance (log10)” value rises from 0.0782 to 0.363.

Compared with “TCGCGTTCTTGGGTTCTAACCTGTTGCTT (site TCGCATTCTAT)”, “TCGCGTTCTTGGGTTCTAACCTGTTGCTT (site TCGCGTTCTAA)” is higher in “recombinant barcode read abundance (log10)” value: 0.217 for the first, 0.677 for the second.

Going from “TCGCTAGCTTGGGTTCTAACCTGTTGCCT (site ACGCTAGCTAG)” to “TCGCTAGCTTGGGTTCTAACCTGTTGCCT (site CCGCTAGCTAG)”, the “recombinant barcode read abundance (log10)” value rises from 0.0632 to 0.4.

“TCGCTAGCTTGGGTTCTAACCTGTTGCCT (site GCGCTAGCTAG)” and “TCGCTAGCTTGGGTTCTAACCTGTTGCCT (site TCGCTAGCTAG)” are within 0.2 log units of each other in “recombinant barcode read abundance (log10)” value: 0.0173 for the first, 0.0976 for the second.

Going from “TCGTATACTTGGGTTCTAACCTGTTGCGG (site TAGTATACTCA)” to “TCGTATACTTGGGTTCTAACCTGTTGCGG (site TCGTATACTCC)”, the “recombinant barcode read abundance (log10)” value rises from 0.193 to 0.396.

“TCGTGAGCTTGGGTTCTAACCTGTTGCCT (site TAGTGAGCTAG)” and “TCGTGAGCTTGGGTTCTAACCTGTTGCCT (site TCGTGAGCTAG)” are within 0.2 log units of each other in “recombinant barcode read abundance (log10)” value: 0.0646 for the first, 0.226 for the second.

With “TCGTGAGCTTGGGTTCTAACCTGTTGCTG (site GGTGACCCTAT)” the “recombinant barcode read abundance (log10)” value was 0.147.
